Entries after “also recorded” stand apart in the source; their conditions may differ.
Legend:
Hcn4 = Hcn4 expression in Tbx18-induced pacemaker cardiomyocytes (real-time PCR); assay type: cell-based, rat; conditions: for Hcn4 expression: 3 days, Tbx18-PCs
Experimental: (§1) For the experiments of drug treatment, Tbx18-PCs after re-expression of Tbx18 were treated with sodium pyruvate (1 mM, 11360-070, Thermo Fisher Scientific, 3 days), 2-deoxy-D-glucose (2-DG, 5 mM, D8375, Sigma-Aldrich, 3 days), wortmannin (PI3K inhibitor, 100 nM, 12-338, Merck Millipore, MA, USA, 4 days), anti-integrin β1 monoclonal antibody (ltgb1, MAB1987Z, 10 μg/mL, Merck Millipore, 2 days), or SB203580 (p38-MAP kinase inhibitor, 559389, 1 μM, Merck Millipore, 3 days), respectively. Then the beating rate and gene expression were analyzed.
(§2) Tbx18-PCs or human IPS-CMs were transduced with human Aldoc adenovirus (CMV promotor, 068583A, Applied Biological Materials, Richmond, BC, Canada), and CMV-null adenovirus was used as a control (000047A, Applied Biological Materials) for 24 hours. Aldoc overexpression was confirmed by Aldoc transcripts (FIG. 1J). The protein, gene transcripts, and beating rates were analyzed 3 days after transduction. The viral titer used in cell transduction of aldolase c overexpression is MOI of 10. The transduced cells were not subjected to enrichment by the antibiotic selection.
(§3) Total RNA was extracted from cultured VMs using the RNeasy® Mini Kit (74106, Qiagen, Venlo, Netherlands). Complementary DNAs (cDNAs) were synthesized using a SuperScript® […] First-Strand Synthesis System (18080051, Thermo Fisher Science). Quantitative real-time PCR (qRT-PCR) was performed using Applied Biosystems™ StepOnePlus Real-Time PCR system with TaqMan probe assays (4331182, Invitrogen, Waltham, Massachusetts, USA) and PrimeTime qPCR Probe Assays (Integrated DNA Technologies, Inc., Coralville, Iowa, USA). The internal control was Gapdh. The conditions of thermocycle used in amplification were denaturation at 95° C. for 15 seconds and annealing and extension step at 60° C. for 60 seconds by 40 cycles. The relative values of gene transcripts were analyzed by ΔΔCt method. All the probes used are listed below in Table 1.

[1] = test system: Tbx18-induced pacemaker cardiomyocytes; assay: Beating rate / electrical firing rate of Tbx18-induced pacemaker cardiomyocytes (video or MEA); assay type: cell-based, rat
Experimental: (§4) The Tbx18-PCs were used as the cell model of pacemaker cardiomyocytes, which were generated by the transduction of VMs with adenoviral human Tbx18 (MOI [multiplicity of infection]: 10; green fluorescent protein [GFP] reporter, ADV-225152, Vector Biolabs, Malvern, USA) for 24 hours (Kapoor et al; Hu et al.). Those with adenovirus-CMV-GFP were used as control VMs (Tsai et al., J Biomed Sci, 2015). For the cocultures of Tbx18-PCs and fibroblasts, a ratio of fibroblasts/VMs ( 1/10) was first plated on fibronectin-coated wells, and adenoviral Tbx18 was transduced for 24 hours one day after seeding to induce PCs. […] Therefore, the beating rates, metabolic and molecular phenotypes, including microelectrode array (MEA), whole transcriptomes, Seahorse analysis, metabolomics, glycolysis metabolites (lactate or DHAP), protein and gene transcripts were analyzed 3-5 days after Tbx18 transduction. The beating rates were recorded by MEA or video. An inverted microscope (AXIO Observer Al, Carl Zeiss AG, Oberkochen, Germany) was used for 10-second video capture. Video was analyzed with Q Capture Pro 6.0 (Teledyne Technologies, CA, USA).
as §1, §2
MEA was used to record electrical firing in Tbx18-PCs, Tbx18-PC tissue sheets, or human IPS-CMs. The cells or tissue sheets were seeded on fibronectin-coated MEA CytoView MEA 24-White plate at 37° C. and 5% C02 (M384-tMEA-24W, Axion BioSystems, Atlanta, USA). The electrical firing rates were recorded by Maestro Edge (Axion BioSystems). The continuous recording of electrical signals for 5 minutes was used for the analysis (sampling frequency: 12.5 kHz, low pass and high pass filter: 2 kHz and 0.1 Hz) by AxIS Navigator software Axion BioSystems. In human IPS-CMs, the cells were further treated with epinephrine (150 ng/mL, Taiwan Biotech Co., Ltd) after recording baseline electrical firing rate. Similarly, continuous recording of electrical signals for 5 minutes after the treatment was used for the analysis.
The cocultures of Tbx18-pacemaker cardiomyocytes (PCs) and fibroblasts, a ratio of fibroblasts/VMs ( 1/10) was first plated on fibronectin-coated wells, and adenoviral Tbx18 (MOI [multiplicity of infection]: 10, ADV-225152, Vector Biolabs, Malvern, USA) was transduced for 24 hours after seeding to induce PCs. After re-expression of Tbx18 were treated with the inhibitors of PI3K (wortmannin, PIK-75, Duvelisib, Alpelisib, Copanlisib, Idelalisib, and Eganelisib), and one IKK inhibitor (BMS-345541) for 4 days. Then the beating rate and Aldoc transcriptional expressions were analyzed. The beating rates were recorded by video. An inverted microscope (AXIO Observer Al, Carl Zeiss AG, Oberkochen, Germany) was used for 10-second video capture. We analyzed the video with Q Capture Pro 6.0 (Teledyne Technologies, CA, USA). Aldoc gene transcriptional expressions were analyzed by quantitative real-time PCR. […]

aldolase c (Aldoc) = assay: Aldoc transcripts by quantitative real-time PCR in treated Tbx18-PC/fibroblast cocultures; assay type: cell-based, rat; conditions: for transcriptional expressions of Aldolase C / Aldolase C expressions: 4 days; for aldolase c expressions within pacemaker cardiomyocytes: in-vitro, summary statement, concentration not given at the place
Experimental: as §4
as §1, with “analyzed. […]” for “analyzed.”
as §3
The cocultures of Tbx18-pacemaker cardiomyocytes (PCs) and fibroblasts, a ratio of fibroblasts/VMs ( 1/10) was first plated on fibronectin-coated wells, and adenoviral Tbx18 (MOI [multiplicity of infection]: 10, ADV-225152, Vector Biolabs, Malvern, USA) was transduced for 24 hours after seeding to induce PCs. After re-expression of Tbx18 were treated with the inhibitors of PI3K (wortmannin, PIK-75, Duvelisib, Alpelisib, Copanlisib, Idelalisib, and Eganelisib), and one IKK inhibitor (BMS-345541) for 4 days. Then the beating rate and Aldoc transcriptional expressions were analyzed. The beating rates were recorded by video. An inverted microscope (AXIO Observer Al, Carl Zeiss AG, Oberkochen, Germany) was used for 10-second video capture. We analyzed the video with Q Capture Pro 6.0 (Teledyne Technologies, CA, USA). Aldoc gene transcriptional expressions were analyzed by quantitative real-time PCR. The protocol is as same as the treatment described previously (FIGS. 31A-31B).
Total RNA was extracted from cultured VMs using the RNeasy® Mini Kit (74106, Qiagen, Venlo, Netherlands). Complementary DNAs (cDNAs) were synthesized using a SuperScript® […] First-Strand Synthesis System (18080051, Thermo Fisher Science). […]

Tbx18-PC tissue sheets = assay: Beating rate / electrical firing of engineered Tbx18-PC tissue sheets; assay type: cell-based, rat; conditions: epinephrine 0.15 μg/mL
Experimental: The fibroblasts and VMs were mixed in a ratio of 1:10 (fibroblast/VMs, total cell number: 1×10^6) with an extracellular matrix of 10% Matrigel (354230, Corning®) in the cultured-insert (80209, 0.22 mm^2, ibidi GmbH, Grsfelfing, Germany) for gelation at 37° C. The engineered tissue was transduced with adenoviral human Tbx18 or control vectors 24 hours after gelation. The constant beating was usually observed 4-5 days after Tbx18 adenovirus transduction. Therefore, phenotypes were determined using immunofluorescence staining, beating rate (either video recording or microelectrode array), and real-time quantitative PCR after virus transduction for 5-6 days. The autonomic response of Tbx18-PC tissue sheets was evaluated by treatment with epinephrine (Taiwan Biotech Co., Ltd, Taoyuan, Taiwan).
The Tbx18-PC cocultures were treated with 200 nM siRNAs (Dharmacon™, GE Healthcare, Lafayette, CO, USA or GenePharma, Shanghai, China) or negative controls (nontarget siRNAs, D-001810-10-05, Dharmacon™ or negative controls, GenePharma) for 24 hours using DharmaFECT transfection reagent (Dharmacon™) in serum-free and antibiotic-free medium. Cells were incubated at 37° C. in 5% C02 for 96 hours, and the beating rate was recorded by microelectrode array (MEA) or video. Then, total RNA was extracted for real-time PCR analysis. […]

mouse SAN = assay: Heart rate recording (ECG) in mice; assay type: in vivo; conditions: epinephrine 2.5 μg intraperitoneal, control (scramble) mice
Experimental: Male mice (C57BL/6, 26 to 32 g, 13-14 weeks, National Laboratory Animal Center, Taiwan) were mechanically ventilated at a controlled temperature (37° C.±0.5° C.) under general anesthesia (isoflurane). […] AAV9 siRNA or scramble virus with a reporter of green fluorescent protein (1.44×10^9 gene copies; AAV9 scramble siRNA [iAAV01509] and Aldoc siRNA pooled virus [117530940219], Applied Biological Materials, Canada) was added to the pericardial recess through the opening. […] The survival rate was 100%. All animals were included except one scramble animal. One animal from the scramble group was excluded because arrhythmia was observed before the experiment.
Two weeks later, the three-lead surface ECG (Biopac, MP36, CA, USA) was recorded on mice by inserting needle electrodes subcutaneously into the limbs after anesthesia. The heart rate was recorded for 2 minutes first to compare the knockdown and control groups. Then, we performed a peritoneal injection of epinephrine (2.5 μg, Taiwan Biotech) and recorded the heart rate for 5 minutes after the injection. After the recording, the mouse hearts were removed for tissue analysis. ECG data were analyzed by Biopac Student Lab 4.1 software (Biopac).

[2] = in-vitro, summary statement, concentration not given at the place

With O=CC[C@@H](O)[C@H](O)[C@H](O)CO [2-DG, 2-deoxy-D-glucose] the Hcn4 expression (Hcn4; 2-DG 5 mM) was “decreased” and the beating rate ([1]; 2-DG 5 mM, 3 days, Tbx18-PCs) was “decreased”.

For Cc1nc(NC(=O)N2CCC[C@H]2C(N)=O)sc1-c1ccnc(C(C)(C)C(F)(F)F)c1 [Alpelisib], the “transcriptional expressions of Aldolase C” value (from here on “transcriptional expressions”) (aldolase c (Aldoc); 250 nM, control 0.87±0.05, P=0.008) was 1.13±0.05, the “aldolase c expressions within pacemaker cardiomyocytes” value (aldolase c (Aldoc)) was “increased” and the beating rates [1, 2] was “increased”.

For Cc1ccc2nc(NCCN)c3ncc(C)n3c2c1 [BMS-345541], the Hcn4 expressions (Hcn4; BMS-345541 5 μM, vs control) was “increased”, the “Aldolase C expressions” value (aldolase c (Aldoc); BMS-345541 5 μM, vs control) was “increased” and the “aldolase c expressions within pacemaker cardiomyocytes” value (aldolase c (Aldoc)) was “increased”. For the same compound, the beating rate ([1]; BMS-345541 1-10 μM, 4 days, vs control) was “increased” and the beating rates [1, 2] was “increased”.

For COc1c(OCCCN2CCOCC2)ccc2c1N=C(NC(=O)c1cnc(N)nc1)N1CCN=C21 [Copanlisib], the “transcriptional expressions” value (aldolase c (Aldoc); 10 nM, control 0.64±0.09, P=0.002) was 1.32±0.09, the “aldolase c expressions within pacemaker cardiomyocytes” value (aldolase c (Aldoc)) was “increased” and the beating rates [1, 2] was “increased”.

In the case of C[C@H](Nc1ncnc2nc[nH]c12)c1cc2cccc(Cl)c2c(=O)n1-c1ccccc1 [Duvelisib], the “transcriptional expressions” value (aldolase c (Aldoc); 50 nM, control 0.82±0.08, P=0.02) is reported as 1.17±0.11.

With C[C@H](NC(=O)c1c(N)nn2cccnc12)c1cc2cccc(C#Cc3cnn(C)c3)c2c(=O)n1-c1ccccc1 [Eganelisib] the “transcriptional expressions” value (aldolase c (Aldoc); 40 nM, control 0.57±0.03, P=0.013) was 0.82±0.07, the “aldolase c expressions within pacemaker cardiomyocytes” value (aldolase c (Aldoc)) was “increased” and the beating rates [1, 2] was “increased”.

For CC[C@H](Nc1ncnc2[nH]cnc12)c1nc2cccc(F)c2c(=O)n1-c1ccccc1 [Idelalisib], the “transcriptional expressions” value (aldolase c (Aldoc); 100 nM, control 0.87±0.05, P=0.02) was 1.01±0.02, the “aldolase c expressions within pacemaker cardiomyocytes” value (aldolase c (Aldoc)) was “increased” and the beating rates [1, 2] was “increased”.

In the case of Cc1ccc([N+](=O)[O-])cc1S(=O)(=O)N(C)/N=C/c1cnc2ccc(Br)cn12 [PIK-75], the “Aldolase C expressions” value (aldolase c (Aldoc); PIK-75 high dose (10 nM), vs control) is reported as “increased”, the “aldolase c expressions within pacemaker cardiomyocytes” value (aldolase c (Aldoc)) is reported as “increased” and the beating rate ([1]; PIK-75 high dose (10 nM), 4 days, vs control) is reported as “increased”. The beating rate ([1]; PIK-75 low dose (1-5 nM), 4 days, vs control) was “increased” and the beating rates [1, 2] was “increased”.

In the case of C[S+]([O-])c1ccc(-c2nc(-c3ccncc3)c(-c3ccc(F)cc3)[nH]2)cc1 (stereo not shown) [SB203580], the Aldoc expression (aldolase c (Aldoc); SB203580 1 μM, 3 days, cocultures, vs control) is reported as “decreased; also recorded: reduced”.

With CNC[C@H](O)c1ccc(O)c(O)c1 [epinephrine] the beating rate (Tbx18-PC tissue sheets; Tbx18-PC tissue sheets) was “increased”, the beating rate (Tbx18-PC tissue sheets; control tissue sheets) was “minimal changes” and the heart rate (mouse SAN) was “increased”.

For CC(=O)C(=O)[O-].[Na+] [sodium pyruvate], the Hcn4 expression (Hcn4; sodium pyruvate 1 mM) was “increased” and the beating rates ([1]; sodium pyruvate 1 mM, 3 days, Tbx18-PCs) was “increased”.
